According to patent US20230278972A1, “SUBSTITUTED HALOALKYL SULFONANILIDE HERBICIDES” (FMC Corporation, priority 2020, published 2023):

Legend:
Format in all cases: in vivo
[1] = test system: galium (catchweed bedstraw, Galium aparine); test: Test A postemergence, galium; conditions: Postemergence, 0 to 100 scale (0 no effect, 100 complete control); for Galium plant response rating: visual injury vs untreated controls after approx. 10 days
Procedure, shortened: (§1)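 Compounds in non-phytotoxic solvent with surfactant. Soil: loam/sand. Preemergence via directed soil spray after seeding; postemergence on seedlings 2–10 cm, one- to two-leaf.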

[2] = test system: wheat (Triticum aestivum); test: Test A postemergence, wheat; conditions: Postemergence, 0 to 100 scale (0 no effect, 100 complete control); for Wheat plant response rating: visual injury vs untreated controls after approx. 10 days
Procedure, shortened: as §1

corn (Zea mays) = test: Test A postemergence, corn; conditions: Postemergence, 0 to 100 scale (0 no effect, 100 complete control); for Corn plant response rating: visual injury vs untreated controls after approx. 10 days
Procedure, shortened: (§2)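 Whole-plant herbicidal screen in pots of loam blended with sand. Sprays used a surfactant-containing, non-phytotoxic solvent vehicle. Timing was preemergence soil-directed at planting or postemergence at the one- to two-leaf stage (2–10 cm).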

[3] = test system: pigweed (Amaranthus retroflexus); test: Test A postemergence, pigweed; conditions: Postemergence, 0 to 100 scale (0 no effect, 100 complete control); for Pigweed plant response rating: visual injury vs untreated controls after approx. 10 days
Procedure, shortened: as §2

[4] = test system: Ryegrass, Italian (Italian ryegrass, Lolium multiflorum); test: Test A postemergence, Ryegrass, Italian; conditions: Postemergence, 0 to 100 scale (0 no effect, 100 complete control); for Ryegrass, Italian plant response rating: visual injury vs untreated controls after approx. 10 days
Procedure, shortened: as §2

[5] = test system: barnyardgrass (Echinochloa crus-galli); test: Test A postemergence, barnyardgrass; conditions: Postemergence, 0 to 100 scale (0 no effect, 100 complete control)
Procedure, shortened: as §1

[6] = test system: barnyardgrass (Echinochloa crus-galli); test: Test A preemergence, barnyardgrass; conditions: Preemergence; for Barnyardgrass plant response rating: visual injury on 0 to 100 scale (0 no effect, 100 complete control), approximately 10 days; for Plant response rating, Barnyardgrass: 0 to 100 scale (0 no effect, 100 complete control)
Procedure, shortened: as §2

kochia (Bassia scoparia) [7] = test: Test A postemergence, kochia; conditions: Postemergence, 0 to 100 scale (0 no effect, 100 complete control); for Kochia plant response rating: visual injury vs untreated controls after approx. 10 days
Procedure, shortened: as §2

[8] = test system: Foxtail, Giant (giant foxtail, Setaria faberi); test: Test A preemergence, Foxtail, Giant; conditions: Preemergence; for Foxtail, Giant plant response rating: visual injury on 0 to 100 scale (0 no effect, 100 complete control), approximately 10 days; for Plant response rating, Foxtail, Giant: 0 to 100 scale (0 no effect, 100 complete control)
Procedure, shortened: as §2

[9] = test system: Ryegrass, Italian (Italian ryegrass, Lolium multiflorum); test: Test A preemergence, Ryegrass, Italian; conditions: Preemergence; for Ryegrass, Italian plant response rating: visual injury on 0 to 100 scale (0 no effect, 100 complete control), approximately 10 days; for Plant response rating, Ryegrass, Italian: 0 to 100 scale (0 no effect, 100 complete control)
Procedure, shortened: as §2

[10] = test system: ragweed (common ragweed, Ambrosia artemisiifolia); test: Test A postemergence, ragweed; conditions: Postemergence, 0 to 100 scale (0 no effect, 100 complete control); for Ragweed plant response rating: visual injury vs untreated controls after approx. 10 days
Procedure, shortened: as §2

[11] = test system: pigweed (Amaranthus retroflexus); test: Test A preemergence, pigweed; conditions: for Pigweed plant response rating: visual injury on 0 to 100 scale (0 no effect, 100 complete control), approximately 10 days; for Plant response rating, Pigweed: 0 to 100 scale (0 no effect, 100 complete control)
Description: Seeds of plant species selected from barnyardgrass (Echinochloa crus-galli), kochia (Bassia scoparia), ragweed (common ragweed, Ambrosia artemisiifolia), Ryegrass, Italian (Italian ryegrass, Lolium multiflorum), Foxtail, Giant (giant foxtail, Setaria faberi), and pigweed (Amaranthus retroflexus) were planted into a blend of loam soil and sand and treated preemergence with a directed soil spray using test chemicals formulated in a non-phytotoxic solvent mixture which included a surfactant. At the same time, plants selected from these weed species and also wheat (Triticum aestivum), corn (Zea mays), blackgrass (Alopecurus myosuroides), and galium (catchweed bedstraw, Galium aparine) were planted in pots containing the same blend of loam soil and sand and treated with postemergence applications of test chemicals formulated in the same manner. Plants ranged in height from 2 to 10 cm and were in the one- to two-leaf stage for the postemergence treatment. […] A dash (-) response means no test result.

[12] = test system: blackgrass (Alopecurus myosuroides); test: Test A postemergence, blackgrass; conditions: Postemergence, 0 to 100 scale (0 no effect, 100 complete control); for Blackgrass plant response rating: visual injury vs untreated controls after approx. 10 days
Procedure, shortened: as §2

[13] = test system: Foxtail, Giant (giant foxtail, Setaria faberi); test: Test A postemergence, Foxtail, Giant; conditions: Postemergence, 0 to 100 scale (0 no effect, 100 complete control); for Foxtail, Giant plant response rating: visual injury vs untreated controls after approx. 10 days
Procedure, shortened: as §2

kochia (Bassia scoparia) [14] = test: Test A preemergence, kochia; conditions: Preemergence; for Kochia plant response rating: visual injury on 0 to 100 scale (0 no effect, 100 complete control), approximately 10 days; for Plant response rating, Kochia: 0 to 100 scale (0 no effect, 100 complete control)
Procedure, shortened: as §2

[15] = test system: ragweed (common ragweed, Ambrosia artemisiifolia); test: Test A preemergence, ragweed; conditions: Preemergence; for Plant response rating, Ragweed: 0 to 100 scale (0 no effect, 100 complete control)
Procedure, shortened: as §2

[16] = 125 g ai/ha, visual injury approx. 10 days
[17] = 500 g ai/ha, visual injury, approx. 10 days
[18] = 125 g ai/ha, visual injury, approx. 10 days

SMILES | Plant response rating, Galium [1, 16] | Plant response rating, Wheat [2, 16] | Plant response rating, Corn (corn (Zea mays); [16]) | Plant response rating, Pigweed [3, 16] | Plant response rating, Ryegrass, Italian [4, 16] | Plant response rating, Barnyardgrass ([6]; 500 g ai/ha) | Plant response rating, Foxtail, Giant ([8]; 500 g ai/ha) | Plant response rating, Ryegrass, Italian ([9]; 500 g ai/ha) | Plant response rating, Pigweed ([11]; 500 g ai/ha) | Plant response rating, Kochia (kochia (Bassia scoparia) [14]; 500 g ai/ha) | Galium plant response rating ([1]; 500 g ai/ha) | Wheat plant response rating ([2]; 500 g ai/ha) | Plant response rating, Ragweed ([15]; 500 g ai/ha) | Corn plant response rating (corn (Zea mays); 500 g ai/ha) | Pigweed plant response rating ([3]; 500 g ai/ha) | Ryegrass, Italian plant response rating ([4]; 500 g ai/ha) | Kochia plant response rating (kochia (Bassia scoparia) [7]; 500 g ai/ha) | Ragweed plant response rating ([10]; 500 g ai/ha) | Blackgrass plant response rating ([12]; 500 g ai/ha) | Foxtail, Giant plant response rating ([13]; 500 g ai/ha) | also measured
O=C(c1ccc(Cl)c(NS(=O)(=O)C(F)(F)F)c1)N1CCOCC1 [Compound 15] | 50 | 0 | 0 | 0 | 30 | 0 | 70 | 30 | 70 | 80 |  |  |  |  |  |  |  |  |  |  | Plant response rating, Galium [1, 17]: 60; Plant response rating, Wheat [2, 17]: 0; Plant response rating, Corn (corn (Zea mays); [17]): 0; Plant response rating, Pigweed [3, 17]: 30; Plant response rating, Ryegrass, Italian [4, 17]: 0; Plant response rating, Barnyardgrass [5, 16]: 0; Plant response rating, Barnyardgrass [5, 17]: 50; Barnyardgrass plant response rating ([6]; 125 g ai/ha): 0; Plant response rating, Kochia (kochia (Bassia scoparia) [7]; [16]): 40; Plant response rating, Kochia (kochia (Bassia scoparia) [7]; [17]): 70; Foxtail, Giant plant response rating ([8]; 125 g ai/ha): 10; Ryegrass, Italian plant response rating ([9]; 125 g ai/ha): 30; Plant response rating, Ragweed [10, 16]: 70; Plant response rating, Ragweed [10, 17]: 80; Pigweed plant response rating ([11]; 125 g ai/ha): 60; Plant response rating, Blackgrass [12, 16]: 0; Plant response rating, Blackgrass [12, 17]: 30; Plant response rating, Foxtail, Giant [13, 16]: 0; Plant response rating, Foxtail, Giant [13, 17]: 50; Kochia plant response rating (kochia (Bassia scoparia) [14]; 125 g ai/ha): 0
Cc1cc(C)c(C(=O)N2CCC(F)(F)C2)cc1NS(=O)(=O)C(F)(F)F [Compound 202] |  |  |  |  |  | 90 | 70 | 70 | 100 | 80 | 80 | 60 | 90 | 20 | 100 | 70 | 50 | 90 | 0 | 70 | Plant response rating, Galium ([1]; 125 g ai/ha): 50; Plant response rating, Wheat ([2]; 125 g ai/ha): 30; Plant response rating, Ragweed [15, 18]: 70; Plant response rating, Corn (corn (Zea mays); 125 g ai/ha): 0; Plant response rating, Pigweed ([3]; 125 g ai/ha): 70; Plant response rating, Ryegrass, Italian ([4]; 125 g ai/ha): 20; Plant response rating, Barnyardgrass [6, 18]: 30; Plant response rating, Kochia (kochia (Bassia scoparia) [7]; 125 g ai/ha): 20; Plant response rating, Foxtail, Giant [8, 18]: 60; Plant response rating, Ryegrass, Italian [9, 18]: 40; Plant response rating, Ragweed ([10]; 125 g ai/ha): 80; Plant response rating, Pigweed [11, 18]: 100; Plant response rating, Blackgrass ([12]; 125 g ai/ha): 0; Plant response rating, Foxtail, Giant ([13]; 125 g ai/ha): 0; Plant response rating, Kochia (kochia (Bassia scoparia) [14]; [18]): 40
Cc1cc(-c2cc(N(S(=O)(=O)C(F)(F)F)S(=O)(=O)C(F)(F)F)c(C)cc2C)c(=O)n(C)n1 [Compound 75] | 70 | 40 | 0 | 40 | 20 | 100 | 100 | 100 | 100 | 100 | 90 | 70 | 80 | 0 | 80 | 60 | 80 | 50 | 70 | 90 | Ragweed plant response rating ([15]; 125 g ai/ha, visual injury on 0 to 100 scale (0 no effect, 100 complete control), approximately 10 days): 20; Barnyardgrass plant response rating ([6]; 125 g ai/ha): 90; Plant response rating, Kochia (kochia (Bassia scoparia) [7]; [16]): 20; Foxtail, Giant plant response rating ([8]; 125 g ai/ha): 100; Ryegrass, Italian plant response rating ([9]; 125 g ai/ha): 80; Plant response rating, Ragweed [10, 16]: 0; Pigweed plant response rating ([11]; 125 g ai/ha): 80; Plant response rating, Blackgrass [12, 16]: 30; Plant response rating, Foxtail, Giant [13, 16]: 30; Kochia plant response rating (kochia (Bassia scoparia) [14]; 125 g ai/ha): 80
Cc1cc(Cl)c(NS(=O)(=O)C(F)(F)F)cc1C(=O)N1CCC(Cl)CC1 [Compound 224] |  |  |  |  |  | 100 | 100 | 100 | 100 | 90 | 90 | 70 | 80 | 60 | 100 | 60 | 70 | 90 | 40 | 70 | Plant response rating, Galium ([1]; 125 g ai/ha): 90; Plant response rating, Wheat ([2]; 125 g ai/ha): 30; Plant response rating, Ragweed [15, 18]: 50; Plant response rating, Corn (corn (Zea mays); 125 g ai/ha): 10; Plant response rating, Pigweed ([3]; 125 g ai/ha): 60; Plant response rating, Ryegrass, Italian ([4]; 125 g ai/ha): 30; Plant response rating, Barnyardgrass [6, 18]: 70; Plant response rating, Kochia (kochia (Bassia scoparia) [7]; 125 g ai/ha): 50; Plant response rating, Foxtail, Giant [8, 18]: 90; Plant response rating, Ryegrass, Italian [9, 18]: 50; Plant response rating, Ragweed ([10]; 125 g ai/ha): 50; Plant response rating, Pigweed [11, 18]: 100; Plant response rating, Blackgrass ([12]; 125 g ai/ha): 0; Plant response rating, Foxtail, Giant ([13]; 125 g ai/ha): 30; Plant response rating, Kochia (kochia (Bassia scoparia) [14]; [18]): 0
